Assays:
[1] = test system: SHSY5Y cells; assay: ATP levels in isolated mitochondria; assay type: cell-based, Human
Experimental: ATP levels. ATP levels were measured in mitochondria isolated from SHSY5Y neurons of control and experimental treatments (n=4) using the ATP determination kit (Molecular Probes) as described in Manczak et al..

[2] = test system: mutant APPSwe/Ind cells; assay: Sandwich ELISA of Aβ40 and Aβ42; assay type: cell-based, mouse; details: DDQ treated vs DDQ untreated mutant APPSwe/Ind cells, protein lysates
Text: FIGS. 9A and 9B show sandwich ELISA analysis of Aβ40 and 42 in mutant APPSwe/Ind cells treated and untreated with DDQ. The inventors performed sandwich ELISA using protein lysates mutant APP cells treated and untreated with DDQ.
DDQ reduces soluble Aβ42 in mutant APPSwe/Ind cells treated with DDQ. To determine whether DDQ reduces Aβ levels, the inventors performed sandwich ELISA using protein lysates of mutant APPSwe/Ind cells treated with DDQ. […] These observations indicate that DDQ reduces Aβ42 levels in mutant APPSwe/Ind cells.
(§1) Mutant APPSwe/Ind cells: The inventors purchased mutant APPSwe cDNA clone (pCAX-APPSwe/Ind) from Addgene—https://www.addgene.org and verified expression of mutant APP APPSwe/Ind cDNA and further sub-cloned into a mammalian expression vector (Arubala P. Reddy—unpublished observations). The inventors transfected mutant APPSwe/Ind cDNA into mouse neuroblastoma (N2a) cells for 24 hrs and after transfection, cells were treated with DDQ (250 nM) for 24 hrs. The inventors harvested mutant APPSwe/Ind cells treated and untreated with DDQ and prepared protein lysates and performed co-immunoprecipitation using Aβ (6E10) antibody and conducted immunoblotting analysis with 6E10 and Drp1 antibodies.

[3] = test system: mutant APPSwe/Ind mouse neuroblastoma (N2a) cells; assay: Co-immunoprecipitation and immunoblotting of mutant APPSwe/Ind cells; assay type: cell-based; details: DDQ 250 nM 24 hrs vs mutant APPSwe/Ind cells untreated with DDQ
Experimental: Co-immunoprecipitation and immunoblotting analysis of mutant APPSwe/Ind cells treated with DDQ. To determine whether DDQ reduces the interaction of Aβ with Drp1 in mutant APPSwe/Ind cells, the inventors used mutant APPSwe/Ind cDNA construct transfected into mouse neuroblastoma (N2a) cells and further cells were treated with DDQ. The inventors performed immunoprecipitation with Aβ (6E10) antibody and immunoblotting analysis with 6E10 and the inventors also performed co-immunoprecipitation analysis with Aβ (6E10) antibody and immunoblotting analysis with Drp1 antibody. […] These findings further confirm that DDQ reduces full-length APP and 4 kDa Aβ and reduces interaction between Drp1 and Aβ.
as §1
The inventors performed co-immunoprecipitation (co-IP) assays using the Dynabeads Kit for Immunoprecipitation (Invitrogen). Briefly, 50 μL of Dynabeads containing protein G was incubated with 10 μg 6E10 or 10 μg of the Drp1 antibodies (both mono- and polyclonal antibodies; Santa Cruz), with rotation, for 1 h at room temperature. The inventors used all the reagents and buffers provided in the kit. Details of antibodies used for co-IP and western blotting are given Table 5. The Dynabeads-Aβ complex was washed three times with a washing buffer and was then incubated overnight with 400 μg of protein at 4° C., with rotation. […]

**Q.** With `CCOP(=O)(OCC)C(NCCc1ccc(O)c(O)c1)c1ccnc2ccccc12` (stereo not drawn) [DDQ, diethyl(3,4-dihydroxyphenethylamine)(quinolin-4-yl)methylphosphonate] as the molecule, how does the ATP levels ([1]; Aβ + DDQ (Aβ1-42 20 μM 6 hrs, then DDQ 24 hrs) vs untreated cells) read?
**A.** Significantly increased levels

**Q.** And the ATP levels ([1]; Aβ + DDQ (Aβ1-42 6 hrs, then DDQ 24 hrs) vs Aβ incubated cells)?
**A.** Significantly increased ATP levels

**Q.** What about the ATP levels ([1]; DDQ 250 nM 24 hrs vs untreated cells) of the same molecule?
**A.** Significantly increased levels

**Q.** What about the ATP levels ([1]; DDQ + Aβ (DDQ 24 hrs, then Aβ1-42 6 hrs) vs Aβ incubated cells) of the same molecule?
**A.** Significantly increased ATP levels

**Q.** What about the Aβ40 levels [2] of the same molecule?
**A.** significantly increased

**Q.** What about the Aβ42 levels [2] of the same molecule?
**A.** significantly decreased levels

**Q.** And the “4 kDa Aβ levels (IP 6E10, WB 6E10)” value [3]?
**A.** reduced levels

**Q.** What about the “Drp1 levels (co-IP 6E10, WB Drp1)” value [3] of the same molecule?
**A.** reduced levels

**Q.** And the “full-length APP levels (IP 6E10, WB 6E10)” value [3]?
**A.** reduced levels
